What was measured:
[1] = molecular target: T1, Human CCR3 (Homo sapiens, UniProt P51677); experiment: Calcium mobilization assay, eotaxin-stimulated; type: cell-based; settings: human CCR3-transformed K562 cells, 10 nM eotaxin; compounds of about 40 to 90% purity; read-out: Activity grade Ca2+ (IC50 class)
T1 construct: The cloned CCR3 cDNA was constructed with pcDNA3 vector and transfected into a IC562 cell line; expressed in transfected cells
T1 sequence (P51677 1-355): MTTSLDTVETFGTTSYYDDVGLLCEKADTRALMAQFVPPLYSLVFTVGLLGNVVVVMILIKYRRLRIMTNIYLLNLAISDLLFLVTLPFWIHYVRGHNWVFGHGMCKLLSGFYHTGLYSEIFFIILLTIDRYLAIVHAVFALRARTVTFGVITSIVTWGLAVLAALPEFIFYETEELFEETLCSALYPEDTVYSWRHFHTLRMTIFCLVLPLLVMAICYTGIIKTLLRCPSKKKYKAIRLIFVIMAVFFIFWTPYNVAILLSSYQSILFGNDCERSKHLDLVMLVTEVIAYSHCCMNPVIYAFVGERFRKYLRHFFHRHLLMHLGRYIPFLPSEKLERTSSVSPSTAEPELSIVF
Procedure, shortened: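 K562 cells transfected with human CCR3, pretreated 20–24 h with 5 mM sodium butyrate, loaded with Fluo-3AM. Compound added 10 min before stimulation with 10 nM (final) eotaxin; cytoplasmic calcium read over 60 s by FDSS, IC50 from inhibition curve.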

IC50 [1] [nM]	melting point [°C]	SMILES
< 1000	191 to 192	O=[N+]([O-])c1ccc(Sc2cc(Cl)cc(Cl)c2)c(S(=O)(=O)N2CCC(N3CCCCC3)CC2)c1 [Example 2-3]
< 1000	270	Cl.N[C@@H]1CCN(S(=O)(=O)c2cc([N+](=O)[O-])ccc2Sc2cc(Cl)cc(Cl)c2)C1 [Example 2-11]
< 1000	263	N[C@H]1CCN(S(=O)(=O)c2cc([N+](=O)[O-])ccc2Sc2cc(Cl)cc(Cl)c2)C1 [Example 2-12]
< 1000	–	CC1CCCCN1CCCNS(=O)(=O)c1cc([N+](=O)[O-])ccc1Sc1cc(Cl)cc(Cl)c1 (stereo not drawn) [Example 2-13]
< 1000	213	O=[N+]([O-])c1ccc(Sc2cc(Cl)cc(Cl)c2)c(S(=O)(=O)N2CCC(N3CCCC3)CC2)c1 [Example 2-22]
< 1000	102	CN(C)CCN(C)S(=O)(=O)c1cc([N+](=O)[O-])ccc1Sc1cc(Cl)cc(Cl)c1 [Example 2-23]
< 1000	–	O=[N+]([O-])c1ccc(Sc2cc(Cl)cc(Cl)c2)c(S(=O)(=O)NCCN2CCCCC2)c1 [Example 2-24]
< 1000	–	O=[N+]([O-])c1ccc(Nc2cc(Cl)cc(Cl)c2)c(S(=O)(=O)N2CCNCC2)c1 [Example 3-2]
1000 to 10000	–	Cc1ccccc1Nc1ccc([N+](=O)[O-])cc1S(=O)(=O)N1CCNCC1 [Example 3-3]
1000 to 10000	–	Cc1cccc(Nc2ccc([N+](=O)[O-])cc2S(=O)(=O)N2CCNCC2)c1 [Example 3-4]
1000 to 10000	–	Cc1ccc(Nc2ccc([N+](=O)[O-])cc2S(=O)(=O)N2CCNCC2)cc1 [Example 3-5]
1000 to 10000	–	O=[N+]([O-])c1ccc(Nc2ccccc2Cl)c(S(=O)(=O)N2CCNCC2)c1 [Example 3-6]
< 1000	–	Cc1cc(C)cc(Oc2ccc([N+](=O)[O-])cc2S(=O)(=O)NCCN2CCCCC2)c1 [Example 4-2]
< 1000	–	Cc1cc(C)cc(Oc2ccc([N+](=O)[O-])cc2S(=O)(=O)NCCN2CCOCC2)c1 [Example 4-3]
< 1000	131 to 132	Cc1cc(C)cc(Oc2ccc([N+](=O)[O-])cc2S(=O)(=O)N2CCN(C)CC2)c1 [Example 4-4]
< 1000	111 to 112	CCN1CCN(S(=O)(=O)c2cc([N+](=O)[O-])ccc2Oc2cc(C)cc(C)c2)CC1 [Example 4-5]
< 1000	190 to 192	Cc1cc(C)cc(Oc2ccc([N+](=O)[O-])cc2S(=O)(=O)N2CCN(C3CCCCC3)CC2)c1 [Example 4-6]
> 10000	168 to 169	Cc1cc(C)cc(Oc2ccc([N+](=O)[O-])cc2S(=O)(=O)N2CCN(c3ccccc3)CC2)c1 [Example 4-7]
> 10000	168 to 170	Cc1ccc(N2CCN(S(=O)(=O)c3cc([N+](=O)[O-])ccc3Oc3cc(C)cc(C)c3)CC2)cc1 [Example 4-8]
< 1000	86 to 88	CCN1CCC(N(CC)S(=O)(=O)c2cc([N+](=O)[O-])ccc2Oc2cc(C)cc(C)c2)C1 (stereo not drawn) [Example 4-12]

IC50 [1] [nM]	melting point [°C]	SMILES
< 1000	115 to 116	Cc1cc(C)cc(Oc2ccc([N+](=O)[O-])cc2S(=O)(=O)N2CC[C@@H](N(C)C)C2)c1 [Example 4-13]
< 1000	75 to 77	Cc1cc(C)cc(Oc2ccc([N+](=O)[O-])cc2S(=O)(=O)N(C)CCN(C)C)c1 [Example 4-14]
< 1000	129 to 131	Cc1cc(C)cc(Oc2ccc([N+](=O)[O-])cc2S(=O)(=O)N2CCN(C(C)C)CC2)c1 [Example 4-15]
< 1000	134 to 135	CCC(C)N1CCN(S(=O)(=O)c2cc([N+](=O)[O-])ccc2Oc2cc(C)cc(C)c2)CC1 (stereo not drawn) [Example 4-16]
< 1000	93 to 95	CCCC(C)N1CCN(S(=O)(=O)c2cc([N+](=O)[O-])ccc2Oc2cc(C)cc(C)c2)CC1 (stereo not drawn) [Example 4-17]
1000 to 10000	131 to 132	CCC(CC)N1CCN(S(=O)(=O)c2cc([N+](=O)[O-])ccc2Oc2cc(C)cc(C)c2)CC1 [Example 4-18]
< 1000	169 to 171	Cc1cc(C)cc(Oc2ccc([N+](=O)[O-])cc2S(=O)(=O)N2CCN(C3CCCC3)CC2)c1 [Example 4-19]
< 1000	105 to 107	CN(C)CCN(C)S(=O)(=O)c1cc([N+](=O)[O-])ccc1Oc1cc(Cl)cc(Cl)c1 [Example 4-20]
< 1000	120 to 121	CCN(CC)C1CCN(S(=O)(=O)c2cc([N+](=O)[O-])ccc2Oc2cc(Cl)cc(Cl)c2)C1 (stereo not drawn) [Example 4-21]
< 1000	200 to 202	O=[N+]([O-])c1ccc(Oc2cc(Cl)cc(Cl)c2)c(S(=O)(=O)N2CCC[C@H]2CN2CCCC2)c1 [Example 4-22]
< 1000	–	CN1CCC(N(C)S(=O)(=O)c2cc([N+](=O)[O-])ccc2Oc2cc(Cl)cc(Cl)c2)C1 (stereo not drawn) [Example 4-23]
< 1000	262 to 264	Cc1cc(C)cc(Oc2ccc([N+](=O)[O-])cc2S(=O)(=O)N2CCC(N(C)C)CC2)c1.Cl [Example 4-24]
< 1000	178 to 179	Cc1cc(C)cc(Oc2ccc([N+](=O)[O-])cc2S(=O)(=O)N2CCN(CC3CCCO3)CC2)c1 (stereo not drawn) [Example 4-26]
< 1000	182 to 183	O=[N+]([O-])c1ccc(Oc2cc(Cl)cc(Cl)c2)c(S(=O)(=O)N2CCN(CC3CCCO3)CC2)c1 (stereo not drawn) [Example 4-27]
< 1000	173 to 174	O=[N+]([O-])c1ccc(Oc2cc(Cl)cc(Cl)c2)c(S(=O)(=O)N2CCC(N3CCCCC3)CC2)c1 [Example 4-29]
< 1000	–	Cc1cc(C)cc(Oc2ccc([N+](=O)[O-])cc2S(=O)(=O)N2CCN(CCC(F)(F)F)CC2)c1 [Example 4-33]
< 1000	166 to 167	O=[N+]([O-])c1ccc(Oc2cc(Cl)cc(Cl)c2)c(S(=O)(=O)N2CCN(CCC(F)(F)F)CC2)c1 [Example 4-34]
< 1000	145	COCCCN1CCN(S(=O)(=O)c2cc([N+](=O)[O-])ccc2Oc2cc(Cl)cc(Cl)c2)CC1 [Example 4-36]
< 1000	–	O=[N+]([O-])c1ccc(Oc2cc(Cl)cc(Cl)c2)c(S(=O)(=O)N2CCC(N3CCCC3)C2)c1 (stereo not drawn) [Example 4-38]
> 10000	133 to 135	Cc1cc(C)cc(Oc2ccc(N)cc2S(=O)(=O)N2CCNCC2)c1.O=C(O)C(F)(F)F [Example 5-3]

IC50 [1] [nM]	melting point [°C]	SMILES
< 1000	120 to 122	CCN1CCN(S(=O)(=O)c2cc(Cl)ccc2Oc2cc(C)cc(C)c2)CC1 [Example 5-4]
< 1000	133 to 134	CCN1CCN(S(=O)(=O)c2cc(I)ccc2Oc2cc(C)cc(C)c2)CC1 [Example 5-5]
< 1000	241 to 243	Cc1cc(C)cc(Oc2ccc(I)cc2S(=O)(=O)N2CCNCC2)c1.Cl [Example 5-6]
> 10000	183	Cc1cc(C)cc(Oc2cc(C)c(N)cc2S(=O)(=O)N2CCNCC2)c1.Cl.Cl [Example 5-7]
< 1000	116 to 118	Cc1cc(C)cc(Oc2ccc(F)cc2S(=O)(=O)N2CCNCC2)c1 [Example 6-3]
> 10000	–	CC(=O)Nc1ccc(Oc2cc(C)cc(C)c2)c(S(=O)(=O)N2CCNCC2)c1 [Example 7-2]
> 10000	–	Cc1cc(C)cc(Oc2ccc(NC(=O)C(C)(C)C)cc2S(=O)(=O)N2CCNCC2)c1 [Example 7-3]
> 10000	–	Cc1cc(C)cc(Oc2ccc(NC(=O)CC(C)C)cc2S(=O)(=O)N2CCNCC2)c1 [Example 7-4]
> 10000	–	Cc1cc(C)cc(Oc2ccc(NC(=O)c3ccccc3)cc2S(=O)(=O)N2CCNCC2)c1 [Example 7-5]
> 10000	–	Cc1ccc(C(=O)Nc2ccc(Oc3cc(C)cc(C)c3)c(S(=O)(=O)N3CCNCC3)c2)cc1 [Example 7-6]
1000 to 10000	–	Cc1cc(C)cc(Oc2ccc(NC(=O)c3cccc4ccccc34)cc2S(=O)(=O)N2CCNCC2)c1 [Example 7-7]
> 10000	–	Cc1cc(C)cc(Oc2ccc(NC(=O)CCc3ccccc3)cc2S(=O)(=O)N2CCNCC2)c1 [Example 7-8]
> 10000	–	Cc1cc(C)cc(Oc2ccc(NC(=O)c3cccs3)cc2S(=O)(=O)N2CCNCC2)c1 [Example 7-9]
< 1000	242 to 247	Cc1cc(C)cc(Oc2ccc(S(=O)(=O)N(C)C)cc2S(=O)(=O)N2CCNCC2)c1.Cl [Example 10-2]
1000 to 10000	90 to 93	N#Cc1ccc(Oc2cc(Cl)cc(Cl)c2)c(S(=O)(=O)N2CCCC3CN(Cc4ccccc4)CC32)c1 (stereo not drawn) [Example 13-2]
< 1000	311 to 312	N#Cc1ccc(Oc2cc(Cl)cc(Cl)c2)c(S(=O)(=O)N2C[C@H]3C[C@@H]2CN3)c1 [Example 13-4]
< 1000	163 to 165	N#Cc1ccc(Oc2cc(Cl)cc(Cl)c2)c(S(=O)(=O)N2C[C@@H]3CCCN[C@@H]3C2)c1 [Example 13-5]
< 1000	240	COCCCN1CCN(S(=O)(=O)c2cc(C#N)ccc2Oc2cc(Cl)cc(Cl)c2)CC1 [Example 13-7]

Source: US8242118B2, “Arylsulfonamide derivatives for use as CCR3 antagonists in the treatment of inflammatory and immunological disorders” (Axikin Pharmaceuticals Inc., priority 2001, dated 2012)
